Data on five molecules can be found in patent US20050272737A1, “Combined treatment with irinotecan and an epidermal growth factor receptor kinase inhibitor” (priority 2004, published 2005).

The conditions of data set [1]: cited from earlier work.
Data set [2] relates to LoVo colorectal xenograft. Briefly: Anti-tumor efficacy in LoVo human colorectal xenograft in nude mice (study 525; also experiment 540). The format is in vivo, female athymic nu/nu mice. How it is done: (§1) In this study, the drugs were combined at their respective maximum tolerated dose (MTD) and also combined together at sub-optimal doses. All doses included in the combination groups were also included in the study as monotherapy arms. The attempt was to achieve maximum efficacy/regression without increased toxicity.
(§2) The health of all animals was determined daily by gross observation of experimental animals and by the analyses of blood samples of sentinel animals that were housed on the shared shelf racks. All animals were allowed to acclimate and recover from any shipping related stress for one week prior to experimental manipulation. […] Cages, bedding and water bottles were autoclaved before use and were changed weekly. […] All in vivo experiments were performed in accordance with protocols approved by the Roche Animal Care and Use Committee (RACUC). The Roche animal care facility is fully accredited by the American Association for the Accreditation of Lab Animal Care (AAALAC).
LoVo cells were grown in F-12K+20% FBS (not heat inactivated) and harvested. 5×10^6 cells/0.2 ml/mouse in PBS (Phosphate Buffered Saline) were implanted subcutaneously in the right flank on Jul.
(§3) Formulated compound was made up in one batch for the entire 3 week study.
(§4) An aliquot of the stock vial solutions was taken for each dose group representing the drug needed for that group for the entire study duration and diluted out further with sterile saline, to provide a solution that renders a 0.2 ml dosing volume for each individual animal.
For study […], animals were randomized according to tumor volume on day 17 post tumor implantation so that all groups had similar starting mean tumor volumes of 100-150 mm^3.
[…] Treatment ended on Aug. […] No end of study drug exposure analysis was performed on this study.
(§5) Tumor measurements and mouse weights were taken two-three times per week for LoVo and HCT116. All animals were individually followed throughout the experiment.
(§6) Efficacy data was graphically represented as the mean tumor volume+standard error of the mean (SEM).
(§7) Tumor volume (in cubic millimeters) was calculated using the ellipsoid formula: (D×(d2))/2 • where ‘D’ represents the large diameter of the tumor, and ‘d’ represents the small diameter.
(§8) In some cases, tumor regression and/or percent change in tumor volume was calculated using the formula: ((T−T0)/T0)×100 • where ‘T’ represents mean tumor volume of the treated group at a particular day and ‘T0’ represents mean tumor volume of the same treated group at initiation of treatment.
(§9) Statistical analysis was determined by the rank sum test and One Way Anova and a post-hoc Bonferroni t-test (SigmaStat, version 2.0, Jandel Scientific, San Francisco, Calif.).
A general note: In xenograft studies the graft and the host belong to different species.

Data set [3] deals with HCT116 colorectal xenograft. The experiment in a line: Anti-tumor efficacy in HCT116 human colorectal xenograft in nude mice (study 531). The format is in vivo, female athymic nu/nu mice. The conditions noted are these: for classification of the HCT116 tumor line towards the agent: therapeutic doses: Tarceva 100 mg/kg qd, Iressa 150 mg/kg. On the procedure:
as §1, §2
HCT-116 cells were grown in McCoy's 5A Modified Medium +10% FBS and harvested. 3×10^6 cells/0.2 ml/mouse in PBS (Phosphate Buffered Saline) were implanted subcutaneously in the right flank on Jul.
as §3, §4
(§10) Tarceva™ was administered using a 1 cc syringe and 18-gauge gavage needles (0.2 ml/animal). […] All groups were treated q4d for 3 weeks (total 6 injections). Treatment ended on Aug. […] No end of study of drug exposure analysis was performed on this study.
as §5, §6, §7, §8, §9

The conditions of data set [4]: study 531; for toxicity and unscheduled deaths: single agent groups and low dose combination (25/15 mg/kg). How it is done:
as §2, §10
A full necropsy was performed on five mice per treatment from all remaining groups, Whole blood was also collected for hematology and clinical chemistry. Tumors were removed and fixed in zinc formalin and subsequently embedded in paraffin. Immunohistochemistry can be performed on these sections to assess apoptosis via TUNEL and proliferative index via Ki67. Necrosis can also be assessed on H&E stained sections.
as §5
Weight loss was graphically represented as percent change in mean group body weight, using the formula: ((W−W0)/W0)×100 • where ‘W’ represents mean body weight of the treated group at a particular day, and ‘W0’ represents mean body weight of the same treated group at initiation of treatment.

Data set [5] can be described thus: in vivo. On the procedure: The dose of 60 mg/kg was selected as the rational maximum therapeutic dose based on investigator experience with this agent.
Data set [6] in a line: Toxicity (body weight, deaths, clinical signs, necropsy) in LoVo study 525. Type of data set: in vivo, female nude mice. The conditions noted are these: Tarceva 100 mg/kg monotherapy. On the procedure:
Female nude mice (10/group), obtained from Charles River Laboratories (Wilmington, Mass.) at an age of 4-6 weeks, and were used when they were ˜10-12 weeks old and weighed ˜23-25 grams.
For efficacy study 525, treatment began on Jul. […] Treatment ended on Aug. 19, 2002 (Day 38 post-tumor implant). No end of study drug exposure analysis was performed on this study.
All animals were individually followed throughout the experiment.

The test system of data set [7] is LoVo colorectal xenograft. Briefly: Anti-tumor efficacy in LoVo human colorectal xenograft in nude mice (study 525; also experiment 540). Type of data set: in vivo, female athymic nu/nu mice. The source holds these as a separate data set.
Where [8] appears, read: Tarceva 25 mg/kg qd monotherapy, study 525, day 38.

Like-named read-outs stand apart in the source and are kept apart here. Bounds are passed on as bounds.

With `O=c1[nH]cc(F)c(=O)[nH]1` [5-fluorouracil], the response rate entry in data set [1] (single-agent treatment, advanced colorectal cancer) is “about 10%”.

For the molecule `CCc1c2c(nc3ccc(OC(=O)N4CCC(N5CCCCC5)CC4)cc13)-c1cc3c(c(=O)n1C2)COC(=O)[C@]3(O)CC` [CPT-11], the “Tumor growth inhibition (TGI)” value in data set [2] (CPT-11 15 mg/kg q4d iv monotherapy, study 525) is listed as 93%; in data set [2] (CPT-11 60 mg/kg q4d iv monotherapy, study 525, day 38), greater than 100%; in data set [3] (CPT-11 15 mg/kg q4d iv monotherapy, study 531) it was 73%; in data set [3] (CPT-11 60 mg/kg q4d iv monotherapy, study 531, day 35), greater than 100%. The tumors partially regressed in data set [2] (CPT-11 60 mg/kg q4d iv monotherapy, study 525) is 90%; in data set [3] (CPT-11 60 mg/kg q4d iv monotherapy, study 531), 70%. In data set [4], the “toxicity and unscheduled deaths” value is reported as “No toxicity or unscheduled deaths”. In data set [5] (female, mouse, in vivo, iv), this molecule yielded an MTD at 3 weeks of 66 mg/kg.

For `COc1cc2ncnc(Nc3ccc(F)c(Cl)c3)c2cc1OCCCN1CCOCC1` [Iressa™], the “classification of the HCT116 tumor line towards the agent” value in data set [3] was “refractory”. Moreover, in data set [4], the “toxicity and unscheduled deaths” value was “No toxicity or unscheduled deaths”.

Regarding `C#Cc1cccc(Nc2ncnc3cc(OCCOC)c(OCCOC)cc23)c1` [Tarceva™, [6,7-bis(2-methoxyethoxy)-4-quinazolin-4-yl]-(3-ethynylphenyl) amine], the “Tumor growth inhibition (TGI)” value in data set [2] (Tarceva 100 mg/kg, experiment 540) is 98%; in data set [7] (setting [8]) it was 79%; in data set [7] (Tarceva 100 mg/kg qd oral monotherapy, study 525, day 38 post tumor implant), greater than 100%. For the same molecule, the tumors partially regressed in data set [2] (Tarceva 100 mg/kg, experiments 525 and 540) is on record as 40-60%. The “mice showing partial regressions (PR)” value in data set [2] (erlotinib 100 mg/kg, fraction of mice) is on record as 6/10. In addition, the “single agent tumor efficacy / tumor growth inhibition” value in data set [3] (Tarceva 25 mg/kg qd monotherapy, study 531, day 35) is “not seen”; in data set [3] (Tarceva 25 mg/kg qd monotherapy, study 531, day 35, listed as erlotinib) it was “did not render significant tumor growth inhibition”; in data set [3] (Tarceva 100 mg/kg qd monotherapy, study 531, day 35 post tumor implant) it was “not seen”; in data set [3] (Tarceva 100 mg/kg qd monotherapy, study 531, day 35 post tumor implant, listed as erlotinib), “did not render significant tumor growth inhibition”. Further, the “classification of the HCT116 tumor line towards the agent” value in data set [3] is “refractory”. For the same molecule, the skin finding result in data set [6] and in data set [4] (Tarceva 100 mg/kg monotherapy) was “classic reddening of the skin” throughout. In data set [4], the “toxicity and unscheduled deaths” value is given as “No toxicity or unscheduled deaths”. Also, the tolerability result is listed as “tolerated well” in data set [5] (Tarceva 150 mg/kg once a day in CMC/Tween for 3 weeks, previous efficacy studies) and “toxicity” in data set [5] (Tarceva 200 mg/kg qd, CMC/Tween, MTD study). The same molecule yielded an MTD at 14 days in data set [5] (female, mouse, in vivo) of 100 mg/kg. Further, the tumor regression result in data set [7] (Tarceva 25 mg/kg qd monotherapy, study 525) was “no regression”. Further, the “% T/C” value in data set [7] (setting [8]) is recorded as 21%; in data set [7] (Tarceva 100 mg/kg qd oral monotherapy, study 525, day 38) it was −2%. In addition, in data set [7] (Tarceva 25 mg/kg qd, experiments 525 and 540), the Tumor growth inhibition is on record as 53-79%. Further, the “tumors with partial regression” value in data set [7] (Tarceva 100 mg/kg qd oral monotherapy, study 525) came to 60%.

Turning to `O=C(O)C(=O)O.[NH-][C@@H]1CCCC[C@H]1[NH-].[Pt+2]` [oxaliplatin], in data set [1] (combined with 5-FU and leucovorin, first-line treatment for colorectal cancer), the response rate is 25-40%.
